Results on 25 compounds are retold here after ChEMBL document CHEMBL3751722, “Discovery of C-shaped aurone human neutrophil elastase inhibitors” (Medchemcomm, 2015).

The subject of one experiment is HEK293. In words: Cytotoxicity against HEK293 cells. As to conditions: Homo sapiens.
Experiment [1] in a line: Selectivity index, ratio of cytotoxic EC50 for HEK293 cells to IC50 for human neutrophil elastase.
In another experiment the target is T1, Neutrophil elastase (Homo sapiens, UniProt P08246).
T1 sequence (P08246 whole entry): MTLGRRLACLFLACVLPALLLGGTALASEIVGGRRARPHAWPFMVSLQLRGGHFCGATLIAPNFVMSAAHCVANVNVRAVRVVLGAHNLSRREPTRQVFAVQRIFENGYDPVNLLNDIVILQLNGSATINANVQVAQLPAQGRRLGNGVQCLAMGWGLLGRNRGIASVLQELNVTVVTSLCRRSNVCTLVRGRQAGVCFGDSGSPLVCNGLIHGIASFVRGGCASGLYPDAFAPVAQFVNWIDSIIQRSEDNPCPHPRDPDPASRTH
The experiment can be described thus: Inhibition of human neutrophil elastase pre-incubated for 30 mins before MeO-Suc-Ala-Ala-Pro-Val-AMC substrate addition by fluorometric assay.

Regarding `CN(C)c1ccc(/C=C2\Oc3ccccc3C2=O)cc1`, the EC50 (in general, the concentration that produces a half-maximal response) in the experiment with HEK293 was more than 100 µM. Also, the “Selectivity Index” value in experiment [1] is given as more than 20. Moreover, the IC50 (usually the concentration that gives 50% inhibition) against Neutrophil elastase stood at 2.9 µM.

On to `CN(C)c1ccc(/C=C2\Oc3cc(O)ccc3C2=O)cc1`, for which the EC50 in the experiment with HEK293 was more than 100 µM. For the same compound, the “Selectivity Index” value in experiment [1] is recorded as more than 20. Inhibition against Neutrophil elastase was half-maximal at 5.1 µM (IC50).

Take `O=C1/C(=C/c2ccc(Br)cc2)Oc2ccccc21`: the EC50 with HEK293 is more than 100 µM.

For `O=C1/C(=C/c2cccc(Br)c2)Oc2ccccc21`, the EC50 with HEK293 was more than 100 µM. The “Selectivity Index” value in experiment [1] is recorded as more than 20. Moreover, at Neutrophil elastase, the IC50 is more than 10 µM.

Compound `O=C1/C(=C/c2ccccc2Br)Oc2ccccc21` displayed an EC50 in the experiment with HEK293 of more than 100 µM.

In the experiment with HEK293, `O=C1/C(=C/c2ccc(-c3ccccc3)cc2)Oc2ccccc21` yielded an EC50 of more than 100 µM.

For the compound `O=C1/C(=C/c2ccc(-c3ccc(F)cc3)cc2)Oc2ccccc21`, in the experiment with HEK293, the EC50 was more than 100 µM.

As for `O=C1/C(=C/c2ccc(-c3ccc(Cl)cc3)cc2)Oc2ccccc21`, the EC50 in the experiment on HEK293 was more than 100 µM.

Regarding `O=Cc1ccc(-c2ccc(/C=C3\Oc4ccccc4C3=O)cc2)cc1`, the EC50 in the experiment on HEK293 was more than 100 µM.

For `O=C1/C(=C/c2ccc(Cc3ccccc3)cc2)Oc2ccccc21`, the EC50 in the experiment on HEK293 was more than 100 µM.

Regarding `O=C1/C(=C/c2ccc(-c3cnc4ccccc4c3)cc2)Oc2ccccc21`, in the experiment on HEK293, the EC50 is more than 100 µM.

`Nc1ccc(-c2ccc(/C=C3\Oc4ccccc4C3=O)cc2)cn1` gave an EC50 in the experiment on HEK293 of more than 100 µM.

Take `O=C1/C(=C/c2ccc(Nc3ccccc3)cc2)Oc2ccccc21`: the EC50 in the experiment on HEK293 was more than 100 µM.

`O=C1/C(=C/c2ccc(NCc3ccccc3)cc2)Oc2ccccc21` came in with an EC50 in the experiment with HEK293 of more than 100 µM.

Compound `Cc1ccc(Oc2ccc(/C=C3\Oc4ccccc4C3=O)cc2)cc1` had an EC50 with HEK293 of more than 100 µM. Moreover, the “Selectivity Index” value in experiment [1] is given as more than 20. Moreover, the IC50 at Neutrophil elastase is more than 10 µM.

As to `O=C1/C(=C/c2ccc(Oc3ccc(Cl)cc3)cc2)Oc2ccccc21`, in the experiment with HEK293, the EC50 was more than 100 µM.

In the experiment with HEK293, `O=C1/C(=C/c2cccc(-c3ccccc3)c2)Oc2ccccc21` gave an EC50 of more than 100 µM.

For the compound `O=C1/C(=C/c2cccc(-c3ccc(Cl)cc3)c2)Oc2ccccc21`, in the experiment on HEK293, the EC50 was more than 100 µM.

Consider `O=Cc1ccc(-c2cccc(/C=C3\Oc4ccccc4C3=O)c2)cc1`, for which the EC50 with HEK293 was more than 100 µM.

`O=C1/C(=C/c2cccc(Cc3ccccc3)c2)Oc2ccccc21`: the EC50 with HEK293 was more than 100 µM.

In the case of `COc1cccc2c1O/C(=C\c1ccccc1)C2=O`, in the experiment with HEK293, the EC50 was more than 100 µM.

`Cc1ccc(Oc2ccc(/C=C3\Oc4cc(O)ccc4C3=O)cc2)cc1` had an EC50 with HEK293 of more than 100 µM.

In the experiment on HEK293, `O=C1/C(=C/c2ccc(Oc3ccc(Cl)cc3)cc2)Oc2cc(O)ccc21` came in with an EC50 of more than 100 µM.

As to `O=C1/C(=C/c2cccc(-c3cnc4ccccc4c3)c2)Oc2ccccc21`, the EC50 in the experiment with HEK293 is more than 100 µM.

`O=C1/C(=C/c2ccccc2)Oc2cc(O)ccc21`: the EC50 in the experiment on HEK293 was more than 100 µM.
